The values below come from paper PMC3433420 (PLoS ONE, 2012).

Test [1] concerns the target T1, RASA1-N SH2 domain (Homo sapiens, UniProt P20936).
T1 sequence (P20936 181-272 limits assumed): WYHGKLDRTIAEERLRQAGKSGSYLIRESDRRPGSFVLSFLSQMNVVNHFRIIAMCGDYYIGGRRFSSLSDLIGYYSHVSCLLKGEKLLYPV
Nature of the test: FP competition assay. It is filed as binding. Details: 6X His; thioredoxin; made in house; host or cells: E. coli BL21(DE3)pLysS. Conditions: RASA1N; labeled peptide ErbB2pY1196; Fig. 3 graph A; read-out: Ki (obs). Here is the method: Unlabeled phosphopeptides were synthesized with some modifications to the previously described protocol. […] Unlabeled competitor peptides were prepared at 11 serial 1∶3 dilutions in assay buffer; one control with no unlabeled competitor peptides was also included with each experimental set. The fluorescent peptide, protein, and unlabeled peptide mixtures were allowed to incubate for a minimum of 20 minutes in 384-well plates and polarization signals were measured using the Analyst GT multimode reader as previously described above. Inhibition curves were constructed by four-parameter log-logistic regression using the “drc” package in R with the parameters for maximum and minimum fluorescence fixed according to Z’ factor positive and negative control values. IC50 values were estimated from these fits under a one-site competition binding model and Ki calculated according to the equation developed by.

Test [2] has as its target T1, RASA1-N SH2 domain. Nature of the test: FP saturation binding assay.
In a further test the target is GRB7 SH2 domain (Homo sapiens, UniProt Q14451). Kind of test: FP saturation binding assay. Conditions: KD for GRB7, FP saturation assay.
The target of test [3] is T2, PIK3R3-C SH2 domain (Homo sapiens, UniProt Q92569).
T2 construct: thioredoxin; made in house; host or cells: E. coli BL21(DE3)pLysS
Kind of test: biochemical. The format is binding. Conditions: FP, PIK3R3-C; mean; NA = no interaction detected.

Test [4] deals with T2, PIK3R3-C SH2 domain. Kind of test: Surface plasmon resonance (Biacore 3000). The format is binding. Conditions: SPR, NA = no interaction detected. As to the method: (§1) All SPR experiments were performed using Biacore 3000 (GE HealthCare, Piscataway, NJ) instrumentation. 6X His-tagged SH2 domain proteins were immobilized on a nitriloacetic acid (NTA) sensor chip (GE HealthCare, Piscataway, NJ) charged with Ni^2+ ions. Dye-free ErbB family peptides were applied to the sensor chip in a single flow cell in solution phase (while the other flow cell was used as a reference control) and binding events were measured under equilibrium conditions. FP false positive [drawing 7] (FPR), false discovery [drawing 8] (FDR), and false negative [drawing 9] (FNR) rates were calculated by defining true positives (TP) as interactions detected by both FP and SPR, true negatives (TN) as interactions detected by neither FP nor SPR; false positives as interactions identified by FP but not validated by SPR; and false negatives (FN) as interactions missed by FP but detected by SPR. Additional details for all methods are provided in the Supplementary Methods.
(§2) A randomly selected set of 12 recombinant SH2 domain proteins and unlabeled (rhodamine dye free) peptides (9 ErbB, 2 GAB1, 2 KIT, 2 MET) were generated for the surface plasmon resonance (SPR) validation study. The 6X His-tagged SH2 domain proteins used in the assay, PLCG1-C, SHC4, VAV2, TNS3, PIK3R3-C, SYK-C, PIK3R1-N, SUPT6H, CRKL, TEC, SHB, and SHC3 were produced and purified as previously described (see “SH2 and PTB domain proteins” section and Jones et al., 2006). Fresh protein stocks were generated so as to avoid bias incurred from proteins previously used in the FP assays. 13-mer peptides corresponding to ErbB1 pY801, ErbB1 pY900, ErbB1 pY978, ErbB1 pY1069, ErbB2 pY685, ErbB pY803, ErbB3 pY912, ErbB4 pY833, ErbB4 pY906, GAB1 pY183, GAB1 pY472, KIT pY570, KIT pY936, MET pY1093 and MET pY1313, were synthesized successfully for the assay using previously described approaches (see “FP competitor peptide synthesis” section). For SPR detection via the Biacore 3000 (GE HealthCare, Piscataway, NJ), His-tagged SH2 domains were immobilized on Biacore NTA sensor chips (GE HealthCare, Piscataway, NJ) pre-charged with Ni^2+ ions in one flow cell while the second served as a negative control reference cell. Peptides were introduced in solution phase to both cells and relative response units (RUs) were recorded from output sensograms. Nine concentrations of peptide and a buffer control, in duplicate, were used to determine KDs using the equilibrium method (best-fit simultaneous modeling for peptide association and disassociation curves).

The target of test [5] is T3, PLCG1-C SH2 domain (Homo sapiens, UniProt P19174).
T3 construct: The 6X His-tagged SH2 domain proteins used in the assay, PLCG1-C, SHC4, VAV2; thioredoxin; made in house; host or cells: E. coli BL21(DE3)pLysS
T3 sequence (P19174 668-756 limits assumed): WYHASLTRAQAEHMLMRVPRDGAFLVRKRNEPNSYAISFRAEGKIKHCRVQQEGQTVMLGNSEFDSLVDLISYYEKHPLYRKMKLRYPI
Kind of test: Surface plasmon resonance (Biacore 3000). The format is binding. Conditions: SPR, NA = no interaction detected. Here is the method: as §1, §2
(SPR reads the build-up and loss of mass on a sensor chip optically.)

For test [6], the target named is T3, PLCG1-C SH2 domain. Nature of the test: biochemical. It is filed as binding. Conditions: FP, PLCG1-C; mean; NA = no interaction detected.
The target in the next test is T4, SHC1-PTB domain (Homo sapiens, UniProt P29353).
T4 sequence (P29353 156-339 limits assumed): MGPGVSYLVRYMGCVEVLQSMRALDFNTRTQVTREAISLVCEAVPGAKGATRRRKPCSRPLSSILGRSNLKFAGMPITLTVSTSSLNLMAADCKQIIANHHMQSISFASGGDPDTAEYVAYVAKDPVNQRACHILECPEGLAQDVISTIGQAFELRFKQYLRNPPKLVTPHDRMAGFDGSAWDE
Nature of the test: FP saturation binding assay.

For test [7], the target named is T5, PLCG1-NC tandem SH2 domains (Homo sapiens, UniProt P19174).
T5 construct: the tandem protein was included in our analysis with all internal amino acids linking the domains; 6X His; thioredoxin; made in house; host or cells: E. coli BL21(DE3)pLysS
T5 sequence (P19174 550-756 limits assumed): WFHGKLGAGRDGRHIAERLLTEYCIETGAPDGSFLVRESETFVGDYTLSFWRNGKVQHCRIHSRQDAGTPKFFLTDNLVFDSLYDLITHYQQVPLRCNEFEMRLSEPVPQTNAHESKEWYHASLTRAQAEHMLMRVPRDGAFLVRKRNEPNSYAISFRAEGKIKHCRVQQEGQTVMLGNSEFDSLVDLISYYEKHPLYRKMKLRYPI
Kind of test: FP saturation binding assay. Conditions: Protein PLCG1-NC; FP saturation binding, high-confidence ErbB interactions; mean over replicate hits.

In test [8] the target is PIK3R2-NC tandem SH2 domains (Homo sapiens, UniProt O00459). Kind of test: FP saturation binding assay.
Another test addresses T6, YES1 SH2 domain (Homo sapiens, UniProt P07947).
T6 construct: 6X His; thioredoxin; made in house; host or cells: BL21(DE3)pLysS E. coli
Kind of test: FP saturation binding assay. Conditions: Protein YES1; FP saturation binding, high-confidence ErbB interactions; mean over replicate hits. The gist of the method:
(§3)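 KD values come from least-squares fits of fluorescence polarization (ex 530, em 555 nm), corrected for thioredoxin nonspecific binding and plate baseline, with outliers pruned. Fixed 10 nM labeled peptide met a 0.002–10 µM protein series for 20 min at room temperature in HEPES/KCl/Tween/DTT buffer, pH 7.8.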

For the next test, the target named is T7, SRC SH2 domain (Homo sapiens, UniProt P12931).
T7 construct: between the c-Src SH2 domain and ErbB1 in our FP assay; 6X His; thioredoxin; made in house; host or cells: E. coli BL21(DE3)pLysS
Nature of the test: FP saturation binding assay. Conditions: protein SRC; FP, high-confidence ErbB interactions; mean of replicate hits. The method, boiled down:
as §3

The structures appear in SMILES notation. Residues, ends and D or L forms follow the SMILES beside them.

T7 sequence (P12931 151-248 limits assumed): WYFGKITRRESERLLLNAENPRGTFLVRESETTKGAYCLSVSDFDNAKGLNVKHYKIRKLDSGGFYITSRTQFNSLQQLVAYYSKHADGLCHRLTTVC
T6 sequence (P07947 158-255 limits assumed): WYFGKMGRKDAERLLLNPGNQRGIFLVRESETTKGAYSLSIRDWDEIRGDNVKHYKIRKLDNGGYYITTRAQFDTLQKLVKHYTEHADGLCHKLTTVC
Sequence of GRB7 SH2 domain (Q14451 431-527 limits assumed): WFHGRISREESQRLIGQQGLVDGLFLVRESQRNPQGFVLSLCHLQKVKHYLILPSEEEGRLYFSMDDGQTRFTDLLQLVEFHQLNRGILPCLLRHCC
Sequence of PIK3R2-NC tandem SH2 domains (O00459 330-716 limits assumed): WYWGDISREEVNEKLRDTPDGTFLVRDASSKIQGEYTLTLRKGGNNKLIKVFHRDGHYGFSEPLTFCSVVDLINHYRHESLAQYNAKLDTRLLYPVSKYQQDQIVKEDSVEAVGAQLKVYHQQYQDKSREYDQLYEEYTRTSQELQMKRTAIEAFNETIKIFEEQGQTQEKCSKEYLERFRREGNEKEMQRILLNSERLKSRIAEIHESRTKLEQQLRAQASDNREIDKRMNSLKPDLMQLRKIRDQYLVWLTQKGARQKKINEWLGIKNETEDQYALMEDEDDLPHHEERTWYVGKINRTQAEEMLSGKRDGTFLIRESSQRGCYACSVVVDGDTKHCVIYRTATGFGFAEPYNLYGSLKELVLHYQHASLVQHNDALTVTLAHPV

For orientation: Ki means a measure of affinity in units of concentration, obtained from inhibition or displacement. A word on the Kd: it is a measure of binding affinity in units of concentration. As for `CSCC[C@H](NC(=O)[C@H](Cc1ccc(O)cc1)NC(=O)[C@H](CCC(=O)O)NC(=O)[C@H](Cc1ccc(OP(=O)(O)O)cc1)NC(=O)[C@H](CC(=O)O)NC(=O)[C@H](CCC(=O)O)NC(=O)[C@H](CC(=O)O)NC(=O)[C@@H]1CCCN1)C(=O)N[C@@H](CC(N)=O)C(=O)N[C@@H](CCCNC(=N)N)C(=O)N[C@@H](CCC(N)=O)C(=O)N[C@@H](CCCNC(=N)N)C(=O)N[C@@H](CC(=O)O)C(=O)O` [ErbB3 pY1260] (HELM PEPTIDE1{P.D.E.D.[O=C([C@H](Cc1ccc(OP(=O)(O)O)cc1)N[*:1])[*:2]].E.Y.M.N.R.Q.R.D}$$$$V2.0), the Ki was 38.8 µM on RASA1-N SH2 domain [1] and more than 20 µM on RASA1-N SH2 domain [2] (read-out: Ki ( exp FP), competing peptide, RASA1N, Ki expected from FP, NI = no interaction). Besides, the Kd at GRB7 SH2 domain was not above 0.1 µM.
`CC(C)C[C@H](NC(=O)[C@H](CCC(=O)O)NC(=O)[C@H](Cc1c[nH]c2ccccc12)NC(=O)[C@@H](NC(=O)[C@@H](NC(=O)[C@@H](NC(=O)CNC(=O)[C@H](Cc1ccc(OP(=O)(O)O)cc1)NC(=O)[C@H](CO)NC(=O)[C@H](Cc1c[nH]c2ccccc12)NC(=O)[C@@H](NC(=O)[C@@H](N)CC(=O)O)C(C)C)C(C)C)[C@@H](C)O)C(C)C)C(=O)N[C@@H](CC(=O)O)C(=O)O` [ErbB1 900]: the Kd came to 5.83 µM at PIK3R3-C SH2 domain [3], 1.47 µM at PIK3R3-C SH2 domain [4], 10.9 µM at PLCG1-C SH2 domain [5] and 15.5 µM on PLCG1-C SH2 domain [6].
On to `CC(C)C[C@H](NC(=O)[C@H](CC(N)=O)NC(=O)[C@H](CC(=O)O)NC(=O)[C@@H](N)Cc1ccccc1)C(=O)N[C@@H](Cc1ccc(OP(=O)(O)O)cc1)C(=O)N[C@@H](Cc1ccc(O)cc1)C(=O)N[C@@H](Cc1c[nH]c2ccccc12)C(=O)N[C@@H](CC(=O)O)C(=O)N[C@@H](CCC(N)=O)C(=O)N[C@@H](CC(=O)O)C(=O)N1CCC[C@H]1C(=O)N1CCC[C@H]1C(=O)N[C@@H](CCC(=O)O)C(=O)N[C@@H](CC(=O)O)C(=O)O` [ErbB2 1221 13-mer] (HELM PEPTIDE1{F.D.N.L.[O=C([C@H](Cc1ccc(OP(=O)(O)O)cc1)N[*:1])[*:2]].Y.W.D.Q.D.P.P.E.D}$$$$V2.0), for which the Kd is 1.98 µM on SHC1-PTB domain; 2.27 µM in test [7]; 11.2 µM in test [8]; 1.12 µM at RASA1-N SH2 domain [2]; 2.41 µM on YES1 SH2 domain.
At SRC SH2 domain, `CC[C@H](C)[C@H](NC(=O)[C@@H](N)CCC(=O)O)C(=O)NCC(=O)N[C@@H](Cc1c[nH]cn1)C(=O)N[C@@H](CO)C(=O)N1CCC[C@H]1C(=O)N1CCC[C@H]1C(=O)N1CCC[C@H]1C(=O)N[C@@H](C)C(=O)N[C@@H](Cc1ccc(OP(=O)(O)O)cc1)C(=O)N[C@H](C(=O)N1CCC[C@H]1C(=O)N[C@@H](CCSC)C(=O)N[C@@H](CO)C(=O)NCC(=O)N[C@@H](CC(N)=O)C(=O)N[C@@H](CCC(N)=O)C(=O)N[C@@H](CC(=O)O)C(=O)O)[C@@H](C)O` [ErbB4 1056 18-mer] (HELM PEPTIDE1{E.I.G.H.S.P.P.P.A.[O=C([C@H](Cc1ccc(OP(=O)(O)O)cc1)N[*:1])[*:2]].T.P.M.S.G.N.Q.D}$$$$V2.0) showed a Kd of 9.47 µM.
